# From PMC12542666, “Mechanistic insights into the dimethylsulfoniopropionate synthesis enzyme BurB” (Applied and Environmental Microbiology, 2025)
# Where two headings read alike, the source gives them in different places.
# Tests used:
# [1] = test system: BurB; format: biochemical, Burkholderia thailandensis
# [2] = target: BurB from Burkholderia thailandensis (Burkholderia thailandensis); experiment: SEC
compound,measurement,setting,value
CSCC[C@H](N)C(=O)O [Met],Km,"[1]; pH 9.0, 40 °C",16.6 mM
C[S+](CC[C@H](N)C(=O)O)C[C@H]1O[C@@H](n2cnc3c(N)ncnc32)[C@H](O)[C@@H]1O (stereo partly drawn) [SAM],Km,[1],1.8 mM
BurB from Burkholderia thailandensis (enzyme),stoichiometry N,[2],4
